Reference: patent US20190212343A1, “METHODS FOR THE TREATMENT OF DISORDERS RELATED TO PHOSPHORYLATION OF HISTONES” (H. LEE MOFFITT CANCER CENTER AND RESEARCH INSTITUTE, INC., priority 2014, published 2019)
Residues, ends and D or L forms follow the SMILES beside them. *: point of attachment. Cbz = O=C(OCc1ccccc1)*

Key:
AR mRNA = AR mRNA levels in androgen-deprived prostate cancer cells (qPCR with AR primers); format: cell-based, human; settings: androgen-deprived LAPC4 and LNCaP cells, overnight treatment
AR protein levels = AR protein levels in androgen deprived prostate cancer cells (immunoblotting); format: cell-based, human; settings: LNCaP cells, MG 132 10 uM 6 hr, in presence or absence of AIM-100
Method: (FIG. 6A) Androgen starved LAPC4 cells were treated with DHT (10 nM, 16 Hrs), AIM-100, DZI-067, Enzalutamide or PLX4032 (7 uM, 36 Hr) and AR, pACK1 and Actin levels were determined by immunoblotting (IB). The relative level of AR is shown below. (FIG. 6B) Androgen deprived LNCaP and VCaP cell were untreated or treated with 2.5, 5 and 10 uM of AIM-100 and lysates were immunoblotted. The quantitation of AR expression is shown. (FIG. 6C) Androgen deprived LNCaP and VCaP cell were untreated or treated with 2.5, 5 and 10 uM of DZI-067 and lysates were immunoblotted. The quantitation of AR expression is shown. (FIG. 6D) LNCaP cells were transfected with control and Ack1 siRNAs followed by immunoblotting. (FIG. 6E) LNCaP cells treated with AIM-100 (7 uM, 16 hr) or MG 132 (10 uM, 6 hr) were immunoblotted with AR antibodies. […]
AR has been known to interact with an ubiquitin E3 ligase, RNF6, causing AR ubiquitination, which in turn promoted AR transcriptional activity (Xu, K. et al. (2009) Cancer Cell 15(4):270-282). To determine whether post-translational modification has role to play in suppression of AR levels upon Ack1 kinase inhibition, LNCaP cells were treated with proteosomal inhibitor, MG-132 and AR levels were measured in presence or absence of AIM-100.

PSA mRNA = PSA mRNA levels in androgen-deprived prostate cancer cells (qPCR with PSA primers); format: cell-based, human; settings: overnight treatment
Method: (FIG. 7A) VCaP and (FIG. 7B) LNCaP cells were grown in absence of androgen and were overnight treated with DZI-067 (7 uM in VCaP, 2.5 & 5 uM in LnCaP), AIM-100 (7 uM), PLX4032 (7 uM), Casodex, Enzalutamide (10 uM) and DHT (10 nM, 3 Hr). Total RNA was isolated followed by qPCR with AR primers. VCaP, *p=0.022, **p=0.018; LNCaP, *p=0.042, **p=0.047, ***p=0.029. (FIG. 7C) VCaP and (FIG. 7D) LNCaP cells were grown in absence of androgen and were overnight treated with DZ1-067 (7 uM in LAPC4, 2.5 & 5 uM in LnCaP), AIM-100 (7 uM), PLX4032 (7 uM), Casodex, Enzalutamide (10 uM) and DHT (10 nM, 3 Hr). Total RNA was isolated followed by qPCR with PSA primers.

[1] = system: H4 Y88-phosphorylation (ACK1); assay: Endogenous H4 pY88-phosphorylation in LNCaP cells (pY88-H4 immunoprecipitation / H4 immunoblot); format: cell-based, human; settings: 16 hrs
Method: FIGS. 9A-9E show ACK1 phosphorylates histone H4 at Tyrosine 88. (FIG. 9A) peptide were spotted followed by immunoblotting with indicated antibodies. (FIG. 9B) Equimolar amounts of purified ACK1 and H4 proteins were incubated in the presence of AIM-100 (100 nM) and reaction subjected to immunoblotting with pTyr antibodies. (FIG. 9C) In vitro kinase assay performed using purified ACK1 and H4, followed by immunoblotting with pY88-H4 antibodies. (FIG. 9D) H4 Y88-phosphorylation in vivo. LNCaP cells were treated with DZI-067, AIM-100 or Enzalutamide (7 uM, 16 hrs). The nuclear lysates were immunoprecipitated with pY88-H4 antibodies followed by immunoblotting with H4. Lower panel is input lysate. (FIG. 9E) LNCaP cells were treated with Crizotinib (1 uM, 16 hrs). The cell lysates were immunoprecipitated with pY88-H4 antibodies followed by immunoblotting with H4 (upper panel).
To explore the sensitivity of endogenous H4 pY88-phosphorylation to ACK1 inhibitor, LNCaP cells were treated with DZI-067, AIM-100 or Enzalutamide.
Applicant also assessed the sensitivity of endogenous H4 pY88-phosphorylation to small molecule inhibitor, Crizotinib, also known as Xalkori (Pfizer). […] It is approved for treatment of some non-small cell lung carcinoma (NSCLC).

CRPC patients = settings: cited from earlier work
IDH2 transcript = assay: Epigenetic marks and IDH2 transcript levels in melanoma cancer cells; format: cell-based, human
WEE1 = settings: yeast and mammalian cells; cited from earlier work
[2] = system: WEE1 expressing cancer cell lines; settings: cited from earlier work

CCCS(=O)(=O)Nc1ccc(F)c(C(=O)c2c[nH]c3ncc(-c4ccc(Cl)cc4)cc23)c1F [PLX4032]
AR mRNA levels (AR mRNA): no significant change in AR mRNA levels

CC(C)C[C@@H](C=O)NC(=O)[C@H](CC(C)C)NC(=O)[C@H](CC(C)C)NC(=O)OCc1ccccc1 [MG-132] (Cbz-Leu-Leu-Leu-aldehyde)
loss of AR caused by Ack1 kinase inhibition (AR protein levels): did not prevent loss of AR

CC(O)(CS(=O)(=O)c1ccc(F)cc1)C(=O)Nc1ccc(C#N)c(C(F)(F)F)c1 (stereo not drawn) [Casodex]
AR mRNA levels (AR mRNA): no significant change in AR mRNA levels | PSA mRNA levels (PSA mRNA): significantly suppressed PSA mRNA levels

C[C@@H](Oc1cc(-c2cnn(C3CCNCC3)c2)cnc1N)c1c(Cl)ccc(F)c1Cl [Crizotinib]
endogenous pY88-phosphorylation of H4 ([1]; 1 uM): significant loss of endogenous pY88-phosphorylation of H4

CNC(=O)c1ccc(N2C(=S)N(c3ccc(C#N)c(C(F)(F)F)c3)C(=O)C2(C)C)cc1F [Enzalutamide]
AR mRNA levels (AR mRNA): no significant change in AR mRNA levels | PSA mRNA levels (PSA mRNA): significantly suppressed PSA mRNA levels | endogenous pY88-phosphorylation of H4 ([1]; 7 uM): unaffected | CRPC patients in whom treatment is effective (CRPC patients): 12 out of 30 | overall survival advantage (CRPC patients): 4-6 months | time to relapse of the most responding patients (CRPC patients): ≤ 2 years

C[C@]12CCC(=O)C[C@@H]1CC[C@@H]1[C@@H]2CC[C@]2(C)[C@@H](O)CC[C@@H]12 [DHT, dihydrotestosterone]
AR mRNA levels (AR mRNA): no significant change in AR mRNA levels | endogenous pY88-phosphorylation of H4 ([1]; 7 uM): unaffected

C=CCn1c(=O)c2cnc(Nc3ccc(N4CCN(C)CC4)cc3)nc2n1-c1cccc(C(C)(C)O)n1 [MK-1775]
IDH2 transcript levels (IDH2 transcript): increasing IDH2 transcript levels | WEE1 epigenetic marks (IDH2 transcript): reversed epigenetic marks | WEE1 epigenetic activity (WEE1): inhibited WEE1 epigenetic activity | histone transcriptional suppression (WEE1): robustly reversed histone transcriptional suppression | apoptosis [2]: selectively induces apoptosis
